Experimental data from patent publication EP0238178B1, “Novel derivatives of erythromycylamine” (ELI LILLY AND COMPANY, priority 1986, dated 1987).
Values after ≈ are worked out from the molar mass of the structure shown. Like-named read-outs stand apart in the source and are kept apart here.

Assays:
[1] = tested on: Staphylococcus aureus X1.1; assay: MIC, standard agar-dilution assay; type: cell-based
[2] = tested on: Staphylococcus aureus V41; assay: MIC, standard agar-dilution assay; type: cell-based
Excerpt: (§1) In addition to excellent in vitro activity against erythromycin-sensitive bacteria, several members of this new series have shown in vitro activity against erythromycin-resistant strains. These include strains which are inducibly-resistant to erythromycin (S.. aureus V41 and X400 and S. epidermidis EPI1) and even strains which are constitutively-resistant (S. epidermidis 270).

[3] = tested on: Staphylococcus aureus X400; assay: MIC, standard agar-dilution assay; type: cell-based
Excerpt: as §1

[4] = tested on: Staphylococcus aureus S13E; assay: MIC, standard agar-dilution assay; type: cell-based
[5] = tested on: Staphylococcus epidermidis 222; assay: MIC, standard agar-dilution assay; type: cell-based
[6] = tested on: Streptococcus pyogenes C203; assay: MIC, standard agar-dilution assay; type: cell-based
[7] = tested on: Streptococcus pneumoniae Park I; assay: MIC, standard agar-dilution assay; type: cell-based
[8] = tested on: Streptococcus sp. group D X66; assay: MIC, standard agar-dilution assay; type: cell-based
[9] = tested on: Streptococcus sp. group D 2041; assay: MIC, standard agar-dilution assay; type: cell-based
[10] = tested on: Haemophilus influenzae C.L.; assay: MIC, standard agar-dilution assay; type: cell-based; details: Ampicillin-sensitive strain
[11] = tested on: Haemophilus influenzae 76; assay: MIC, standard agar-dilution assay; type: cell-based; details: Haemophilus influenzae 76, Ampicillin-resistant strain
[12] = tested on: Escherichia coli EC14; assay: MIC, standard agar-dilution assay; type: cell-based
[13] = tested on: Klebsiella pneumoniae X68; assay: MIC, standard agar-dilution assay; type: cell-based
[14] = tested on: Staphylococcus aureus; assay: Experimental bacterial infection in mice, ED50; type: in vivo; details: Staphylococcus aureus, two doses, dose protecting 50% of animals
Experimental: (§2) The new derivatives of this invention have also shown in vivo antimicrobial activity against experimental bacterial infections. When two doses of test compound were administered to mice in experimental infections, the activity observed was measured as an EDso value [effective dose in mg/kg to protect 50% of the test animals: see Warren Wick, et al., J. Bacteriol. 81, 233-235 (1961)].

[15] = tested on: Streptococcus pneumoniae; assay: Experimental bacterial infection in mice, ED50; type: in vivo; details: Streptococcus pneumoniae, po, two doses, dose protecting 50% of animals, read-out: Oral ED50
Experimental: as §2

[16] = tested on: Streptococcus pyogenes; assay: Experimental bacterial infection in mice, ED50; type: in vivo; details: Streptococcus pyogenes, po, two doses, dose protecting 50% of animals, read-out: Oral ED50
Experimental: as §2

[17] = tested on: Staphylococcus epidermidis EPI1; assay: MIC, standard agar-dilution assay; type: cell-based
Excerpt: as §1

[18] = Staphylococcus aureus V41, Penicillin-resistant strain, inducibly-resistant to erythromycin, read-out: MIC
[19] = Staphylococcus aureus X400, Methicillin-resistant strain, inducibly-resistant to erythromycin, read-out: MIC
[20] = Streptococcus sp. group D X66, read-out: MIC

Row | Molecule | MIC [4] [µg/mL] | MIC ([1]; read-out: MIC) [µg/mL] | MIC [2, 18] [µg/mL] | MIC [3, 19] [µg/mL] | MIC ([5]; read-out: MIC) [µg/mL] | MIC ([6]; read-out: MIC) [µg/mL] | MIC ([9]; read-out: MIC) [µg/mL] | MIC ([10]; read-out: MIC) [µg/mL] | MIC ([11]; read-out: MIC) [µg/mL] | MIC ([12]; read-out: MIC) [µg/mL] | MIC ([13]; read-out: MIC) [µg/mL] | ED50 ([14]; po, read-out: Oral ED50) [mg/kg] | ED50 [15] [mg/kg] | ED50 [16] [mg/kg] | MIC ([7]; read-out: MIC) [µg/mL] | MIC [8, 20] [µg/mL] | other results
1 | 9-Deoxo-9-[(5-dimethylamino-2-pentyl)amino]-9,11-1N,O)-cyclic. Methylene Adduct of Erythromycin [Compound 63] | 8 | – | – | – | – | – | – | – | – | – | – | – | – | – | – | – | MIC [1]: 8 µg/mL; MIC ([2]; Staphylococcus aureus V41, Penicillin-resistant strain, inducibly-resistant to erythromycin): – (– = >128); MIC ([3]; Staphylococcus aureus X400, Methicillin-resistant strain, inducibly-resistant to erythromycin): – (– = >128); MIC [5]: 8 µg/mL; MIC [6]: 0.5 µg/mL; MIC [7]: 0.5 µg/mL; MIC ([8]; Streptococcus sp. group D X66): 2 µg/mL; MIC [9]: 32 µg/mL; MIC [10]: 8 µg/mL; MIC [11]: 8 µg/mL; MIC [12]: 32 µg/mL; MIC [13]: 128 µg/mL
2 | CC[C@H]1OC(=O)[C@H](C)[C@@H](O[C@H]2C[C@@](C)(OC)[C@@H](O)[C@H](C)O2)[C@H](C)[C@@H](O[C@@H]2O[C@H](C)C[C@H](N(C)C)[C@H]2O)[C@](C)(O)C[C@@H](C)[C@H](NC)[C@H](C)[C@@H](O)[C@]1(C)O [Compound 1, 9-Deoxo-9-(methylamino)erythromycin] | 0.125 (≈ 0.167 µM) | 1 (≈ 1.34 µM) | 64 (≈ 85.4 µM) | 64 (≈ 85.4 µM) | 0.25 (≈ 0.334 µM) | 0.06 (≈ 0.0801 µM) | 1 (≈ 1.34 µM) | 0.5 (≈ 0.668 µM) | 1 (≈ 1.34 µM) | 32 (≈ 42.7 µM) | 64 (≈ 85.4 µM) | 43.8 | 35.4 | 21 | – | – | MIC ([8]; Streptococcus): 0.125 µg/mL (≈ 0.167 µM)
3 | CCC(CC)CN[C@@H]1[C@H](C)[C@@H](O)[C@](C)(O)[C@@H](CC)OC(=O)[C@H](C)[C@@H](O[C@H]2C[C@@](C)(OC)[C@@H](O)[C@H](C)O2)[C@H](C)[C@@H](O[C@@H]2O[C@H](C)C[C@H](N(C)C)[C@H]2O)[C@](C)(O)C[C@H]1C [Compound 12, 9-Deoxo-9-[(2-ethylbutyl)amino]erythromycin] | 0.25 (≈ 0.305 µM) | 0.5 (≈ 0.61 µM) | 16 (≈ 19.5 µM) | 16 (≈ 19.5 µM) | 0.5 (≈ 0.61 µM) | 0.015 (≈ 0.0183 µM) | 8 (≈ 9.77 µM) | 2 (≈ 2.44 µM) | 2 (≈ 2.44 µM) | 64 (≈ 78.1 µM) | 32 (≈ 39.1 µM) | 22.3 | 16.6 | 9.4 | 0.015 (≈ 0.0183 µM) | 0.125 (≈ 0.153 µM) | –
4 | CC[C@H]1OC(=O)[C@H](C)[C@@H](O[C@H]2C[C@@](C)(OC)[C@@H](O)[C@H](C)O2)[C@H](C)[C@@H](O[C@@H]2O[C@H](C)C[C@H](N(C)C)[C@H]2O)[C@](C)(O)C[C@@H](C)[C@H](NCCC(C)CCCC(C)(C)OC)[C@H](C)[C@@H](O)[C@]1(C)O (stereo partly drawn) [Compound 24, 9-Deoxo-9-[(7-methoxy-3,7-dimethyloctyl)amino]erythromycin] | 0.25 (≈ 0.276 µM) | 0.5 (≈ 0.552 µM) | 64 (≈ 70.7 µM) | 64 (≈ 70.7 µM) | 0.25 (≈ 0.276 µM) | 0.015 (≈ 0.0166 µM) | 2 (≈ 2.21 µM) | 1 (≈ 1.1 µM) | 2 (≈ 2.21 µM) | 128 (≈ 141 µM) | – | > 45.6 | 23.6 | 25 | – | 0.03 (≈ 0.0331 µM) | –
5 | CC[C@H]1OC(=O)[C@H](C)[C@@H](O[C@H]2C[C@@](C)(OC)[C@@H](O)[C@H](C)O2)[C@H](C)[C@@H](O[C@@H]2O[C@H](C)C[C@H](N(C)C)[C@H]2O)[C@](C)(O)C[C@@H](C)[C@H]2[C@H](C)[C@@H](OCN2C(C)C)[C@]1(C)O [Compound 58, 9-Deoxo-9-[isopropylamino]-9,11-(N,O)-cyclic Methylene Adduct of Erythromycin] | 1 (≈ 1.27 µM) | 1 (≈ 1.27 µM) | – | – | 0.5 (≈ 0.634 µM) | 0.125 (≈ 0.158 µM) | 4 (≈ 5.07 µM) | 4 (≈ 5.07 µM) | 4 (≈ 5.07 µM) | 32 (≈ 40.6 µM) | 64 (≈ 81.1 µM) | – | 5.7 | 6.7 | 0.06 (≈ 0.076 µM) | 0.25 (≈ 0.317 µM) | MIC ([2]; Staphylococcus aureus, V41): > 128 µg/mL; MIC ([3]; Staphylococcus aureus, X400): > 128 µg/mL; MIC [17]: 128 µg/mL (≈ 162 µM); ED50 ([14]; sc, subcutaneous, read-out: Subcutaneous ED50): > 10 mg/kg
